Consider ten compounds from ChEMBL document CHEMBL1201862, “PubChem BioAssay data set” (2004).

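Where inhibition never reached the appropriate level, the endpoint shown equals the highest concentration tested. Otherwise, values were interpolated linearly from a five-concentration, 48-hour dose response in 96-well plates. Here, GI50 denotes the concentration required for 50% inhibition of growth.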 Activity calls are given as the source filed them. Rule as the data show it: active = GI50 up to about 1.1 µM and inactive = higher.

Test systems include SN12C; SR; RPMI-8226; MOLT-4; UACC-257; K562; OVCAR-5; NCI/ADR-RES; UACC-62; SK-MEL-5; HT-29; 786-0; NCI-H460; BT-549; SNB-75; KM12; LOX IMVI; SK-MEL-2; PC-3; U-251.
Holding throughout (assay): NCI-60 cell line screen, 48 h

In the case of `Cc1ccc([S+]([O-])(=Nc2ccccc2)C(C(C)C)C(C)(C)Cl)cc1` (stereo not given), the GI50 is 22.4 µM (inactive) with SN12C; 16.1 µM (inactive) in the assay with SR; 14 µM (inactive) in the assay with RPMI-8226; 10.5 µM (inactive) in the assay with MOLT-4; 10.8 µM (inactive) in the assay on UACC-257; 16.7 µM (inactive) in the assay on K562. For the same compound, the GI50 was 22.1 µM (inactive) in the assay with OVCAR-5; 15 µM (inactive) with NCI/ADR-RES; 30.9 µM (inactive) in the assay with UACC-62; 4.06 µM (inactive) with SK-MEL-5; 17.1 µM (inactive) in the assay on HT-29; 24.2 µM (inactive) with 786-0. In addition, the GI50 is 4.21 µM (inactive) in the assay with NCI-H460; 18.1 µM (inactive) in the assay with BT-549; > 50 µM (inactive) in the assay with SNB-75; 13.5 µM (inactive) in the assay with KM12; 25.2 µM (inactive) with LOX IMVI; 12.5 µM (inactive) with SK-MEL-2. The GI50 with PC-3 is 16.1 µM (inactive); in the assay on U-251 it was 16.7 µM (inactive).

Consider `COc1ccc2c(c1)CN1C(=N2)CSC1c1ccccc1Cl` (stereo not given), for which the GI50 is 19.1 µM (inactive) with SN12C; 7.76 µM (inactive) in the assay on SR; 12.1 µM (inactive) in the assay with RPMI-8226; 0.54 µM (active) in the assay with MOLT-4; 13.4 µM (inactive) in the assay on UACC-257; 5.33 µM (inactive) in the assay on K562. Also, the GI50 in the assay on OVCAR-5 was 18.5 µM (inactive); with NCI/ADR-RES it was 10.1 µM (inactive); with UACC-62, 17.6 µM (inactive); in the assay on SK-MEL-5, 14.4 µM (inactive); in the assay with HT-29, 17.4 µM (inactive); in the assay on 786-0, 17.9 µM (inactive). Also, the GI50 in the assay with NCI-H460 is 14.3 µM (inactive); in the assay on BT-549, 25.2 µM (inactive); in the assay on SNB-75, 19 µM (inactive); with KM12, 18 µM (inactive); in the assay on LOX IMVI it was 15 µM (inactive); with SK-MEL-2, 17.7 µM (inactive). In addition, the GI50 is 16.3 µM (inactive) in the assay on PC-3 and 21.5 µM (inactive) in the assay on U-251.

For `O=[N+]([O-])c1cccc2nc3ccccc3c(NCCC[N+]3([O-])CCCCC3)c12`, the GI50 in the assay on SN12C was 0.39 µM (active); in the assay on SR it was 0.0479 µM (active); with RPMI-8226, 0.308 µM (active); in the assay on MOLT-4, 0.198 µM (active); in the assay on UACC-257 it was 0.244 µM (active); in the assay on K562, 1.1 µM (active). For the same compound, the GI50 in the assay with OVCAR-5 is 0.498 µM (active); with NCI/ADR-RES, > 100 µM (inactive); in the assay with UACC-62, 0.272 µM (active); in the assay on SK-MEL-5, 0.36 µM (active); with HT-29, 0.301 µM (active); in the assay with 786-0 it was 0.438 µM (active). The GI50 is 0.279 µM (active) in the assay with NCI-H460; 0.501 µM (active) in the assay on BT-549; 0.416 µM (active) in the assay on SNB-75; 0.349 µM (active) with KM12; 0.46 µM (active) with LOX IMVI; 0.179 µM (active) with SK-MEL-2. Further, the GI50 in the assay on PC-3 is 0.255 µM (active); in the assay with U-251 it was 0.289 µM (active).

In the case of `O=C(CNS(=O)(=O)Cc1ccccc1)NNc1ccccc1`, the GI50 was > 100 µM (inactive) in the assay with SN12C; > 100 µM (inactive) in the assay with SR; 18.4 µM (inactive) in the assay with RPMI-8226; > 100 µM (inactive) in the assay on MOLT-4; > 78.2 µM (inactive) in the assay on UACC-257; 2.5 µM (inactive) in the assay with K562. The GI50 with OVCAR-5 is > 100 µM (inactive); with NCI/ADR-RES, > 100 µM (inactive); in the assay with UACC-62, 1.12 µM (active); in the assay on SK-MEL-5 it was 80 µM (inactive); in the assay with HT-29, > 100 µM (inactive); in the assay on 786-0 it was > 100 µM (inactive). In addition, the GI50 with NCI-H460 was 25.1 µM (inactive); with BT-549, > 100 µM (inactive); with SNB-75, > 36.6 µM (inactive); in the assay with KM12, 6.1 µM (inactive); with LOX IMVI, 1.85 µM (inactive); in the assay with SK-MEL-2, > 30 µM (inactive). The GI50 in the assay on PC-3 and in the assay on U-251 was > 100 µM (inactive) each time.

As to `COC(=O)CN(CC(O)C(NC(C)=O)C(O)C=O)C(=O)OCc1ccccc1` (stereo not given), the GI50 in the assay with SN12C, with SR, in the assay on RPMI-8226, with MOLT-4, in the assay with UACC-257 and in the assay on K562 was > 100 µM (inactive) throughout. In addition, the GI50 with OVCAR-5, in the assay with NCI/ADR-RES, in the assay with UACC-62, in the assay on SK-MEL-5, in the assay with HT-29 and in the assay with 786-0 was > 100 µM (inactive) in each case. Also, the GI50 with NCI-H460, in the assay with BT-549, in the assay on SNB-75, with KM12, with LOX IMVI and in the assay with SK-MEL-2 was > 100 µM (inactive) throughout. In addition, the GI50 in the assay on PC-3 and in the assay with U-251 was > 100 µM (inactive) throughout.

For `N#Cc1cc2c(n(C3OC(CO)C(O)C(O)C3O)c1=S)CCCCCC2` (stereo not given), the GI50 in the assay on SN12C, in the assay on SR, in the assay with RPMI-8226, in the assay on MOLT-4, in the assay with UACC-257 and in the assay with K562 was > 100 µM (inactive) each time. Further, the GI50 in the assay on OVCAR-5, in the assay with NCI/ADR-RES, in the assay with UACC-62, with SK-MEL-5, in the assay on HT-29 and in the assay with 786-0 was > 100 µM (inactive) each time. Further, the GI50 in the assay with NCI-H460, in the assay on BT-549, in the assay with SNB-75, with KM12, in the assay with LOX IMVI and in the assay on SK-MEL-2 was > 100 µM (inactive) throughout. Besides, the GI50 in the assay with PC-3 and in the assay with U-251 was > 100 µM (inactive) throughout.

On to `COc1cc(/C=C2/CCS(=O)(=O)c3ccc(C)cc3C2=O)cc(OC)c1OC`, for which the GI50 is 3.66 µM (inactive) in the assay on SN12C; 2.32 µM (inactive) with SR; 2.65 µM (inactive) in the assay on RPMI-8226; 3.62 µM (inactive) in the assay on MOLT-4; 4.15 µM (inactive) in the assay on UACC-257; 2.06 µM (inactive) in the assay on K562. The GI50 in the assay with OVCAR-5 was 5.87 µM (inactive); in the assay on NCI/ADR-RES, 3.14 µM (inactive); with UACC-62 it was 4.12 µM (inactive); with SK-MEL-5 it was 2.53 µM (inactive); in the assay on HT-29, 3.92 µM (inactive); in the assay with 786-0, 3.3 µM (inactive). For the same compound, the GI50 is 3.23 µM (inactive) with NCI-H460; 3.52 µM (inactive) in the assay with BT-549; 5.27 µM (inactive) in the assay on SNB-75; 4.54 µM (inactive) in the assay with KM12; 2.61 µM (inactive) with LOX IMVI; 9.75 µM (inactive) in the assay with SK-MEL-2. Also, the GI50 was 6.73 µM (inactive) in the assay with PC-3 and 4.14 µM (inactive) in the assay on U-251.

In the case of `N#Cc1c(NC(=S)Nc2ccc(Cl)cc2)sc2c1CCN(N1CCc3c(sc(NC(=S)Nc4ccc(Cl)cc4)c3C#N)C1)C2`, the GI50 in the assay with SN12C is 39.3 µM (inactive); in the assay on SR it was > 100 µM (inactive); with RPMI-8226, > 100 µM (inactive); in the assay on MOLT-4 it was 48.1 µM (inactive); in the assay with UACC-257, 29.7 µM (inactive); in the assay with K562 it was 22.4 µM (inactive). Besides, the GI50 in the assay on OVCAR-5 is 13.8 µM (inactive); in the assay with NCI/ADR-RES it was 76.6 µM (inactive); in the assay with UACC-62, 10.6 µM (inactive); in the assay with SK-MEL-5 it was 10.5 µM (inactive); in the assay with HT-29, 13.6 µM (inactive); in the assay with 786-0 it was 21 µM (inactive). The GI50 in the assay on NCI-H460 was 32.4 µM (inactive); with BT-549, 36.6 µM (inactive); with SNB-75 it was 69 µM (inactive); in the assay with KM12, 55.2 µM (inactive); in the assay with LOX IMVI, 5.62 µM (inactive); in the assay on SK-MEL-2 it was 20.3 µM (inactive). Moreover, the GI50 with PC-3 was 37.4 µM (inactive); with U-251 it was 29.2 µM (inactive).

For `Cc1ccc(N2C(=O)CC(=O)N(NC(=O)C(C)Oc3ccccc3C)C2=S)cc1` (stereo not given), the GI50 is > 100 µM (inactive) with SN12C; 57.1 µM (inactive) with SR; > 100 µM (inactive) in the assay with RPMI-8226; 48 µM (inactive) in the assay with MOLT-4; > 100 µM (inactive) with UACC-257; 65.9 µM (inactive) with K562. Moreover, the GI50 with OVCAR-5, with NCI/ADR-RES, in the assay with UACC-62, in the assay on SK-MEL-5, in the assay with HT-29 and in the assay on 786-0 was > 100 µM (inactive) throughout. For the same compound, the GI50 is > 100 µM (inactive) in the assay with NCI-H460; > 100 µM (inactive) with BT-549; > 100 µM (inactive) in the assay on SNB-75; > 100 µM (inactive) in the assay with KM12; 70.6 µM (inactive) in the assay on LOX IMVI; > 100 µM (inactive) in the assay with SK-MEL-2. The GI50 in the assay on PC-3 and in the assay with U-251 was > 100 µM (inactive) each time.

Consider `CC(C)OC(=O)c1ccc(CCC2=CC(=O)C=CC2=O)cc1`, for which the GI50 was 11.3 µM (inactive) with SN12C; 2.56 µM (inactive) in the assay on SR; 2.79 µM (inactive) in the assay with RPMI-8226; 2.1 µM (inactive) in the assay with MOLT-4; 12.1 µM (inactive) in the assay with UACC-257; 3.04 µM (inactive) in the assay on K562. Moreover, the GI50 was 18 µM (inactive) with OVCAR-5; 7.78 µM (inactive) in the assay on NCI/ADR-RES; 14.9 µM (inactive) with UACC-62; 15 µM (inactive) with SK-MEL-5; 18.1 µM (inactive) in the assay on HT-29; 4.22 µM (inactive) in the assay with 786-0. For the same compound, the GI50 with NCI-H460 is 21.8 µM (inactive); in the assay on BT-549, 5.25 µM (inactive); in the assay with SNB-75, 22.5 µM (inactive); in the assay on KM12 it was 12.2 µM (inactive); with LOX IMVI, 4.1 µM (inactive); with SK-MEL-2, 19.1 µM (inactive). The GI50 was 12 µM (inactive) in the assay with PC-3 and 15.6 µM (inactive) in the assay on U-251.
